Results on 6 compounds are retold here after ChEMBL document CHEMBL2407087, “Casuarinines A-J, lycodine-type alkaloids from Lycopodiastrum casuarinoides” (J Nat Prod, 2013).

Experiment [1] in a line: Neuroprotective activity in human SH-SY5Y cells assessed as protection against H2O2-induced reduction of cell viability at 100 uM treated 2 hrs before H2O2 addition measured after 24 hrs by MTT assay relative to control. It is filed as functional, cell-based.
Experiment [2] in a line: Neuroprotective activity in human SH-SY5Y cells assessed as protection against H2O2-induced reduction of cell viability at 100 uM treated 2 hrs before H2O2 addition measured after 24 hrs by MTT assay relative to H2O2 treated control. It is filed as functional, cell-based.
Experiment [3] is described as follows: Neuroprotective activity in human SH-SY5Y cells assessed as protection against H2O2-induced reduction of cell viability at 10 uM treated 2 hrs before H2O2 addition measured after 24 hrs by MTT assay relative to control. It is filed as functional, cell-based.
Experiment [4] in a line: Neuroprotective activity in human SH-SY5Y cells assessed as protection against H2O2-induced reduction of cell viability at 1 uM treated 2 hrs before H2O2 addition measured after 24 hrs by MTT assay relative to control. It is filed as functional, cell-based. For orientation: Formazan colour is commonly taken as a measure of viable cells.
A short description of experiment [5]: Neuroprotective activity in human SH-SY5Y cells assessed as protection against H2O2-induced reduction of cell viability at 10 uM treated 2 hrs before H2O2 addition measured after 24 hrs by MTT assay relative to H2O2 treated control. It is filed as functional, cell-based.
Experiment [6] deals with Acetylcholinesterase (Homo sapiens, UniProt P22303). Put plainly: Inhibition of AChE (unknown origin) using acetylthiocholine iodide as substrate after 8 mins by Ellman's spectrophotometric method.
Experiment [7] addresses T1, Acetylcholinesterase (Rattus norvegicus) (UniProt P37136).
T1 sequence (whole entry): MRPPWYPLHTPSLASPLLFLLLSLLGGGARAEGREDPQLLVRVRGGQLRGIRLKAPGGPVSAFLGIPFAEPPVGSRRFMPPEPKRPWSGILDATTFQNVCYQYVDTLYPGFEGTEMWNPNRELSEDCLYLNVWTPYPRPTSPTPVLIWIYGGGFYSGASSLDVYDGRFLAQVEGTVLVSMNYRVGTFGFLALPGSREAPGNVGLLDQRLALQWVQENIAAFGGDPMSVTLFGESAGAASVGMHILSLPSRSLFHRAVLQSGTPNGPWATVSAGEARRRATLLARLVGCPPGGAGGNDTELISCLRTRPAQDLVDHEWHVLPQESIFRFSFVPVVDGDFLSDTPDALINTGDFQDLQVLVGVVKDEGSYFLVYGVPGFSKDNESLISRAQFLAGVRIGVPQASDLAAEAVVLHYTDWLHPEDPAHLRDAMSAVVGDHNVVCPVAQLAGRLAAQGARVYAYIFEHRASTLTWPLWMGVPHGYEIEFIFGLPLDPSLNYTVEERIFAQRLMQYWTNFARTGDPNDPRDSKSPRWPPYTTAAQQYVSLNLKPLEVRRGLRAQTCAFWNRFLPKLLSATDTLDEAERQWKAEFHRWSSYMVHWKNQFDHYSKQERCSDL
Description: Reversible inhibition of rat cortical AChE up to 8 mins.

Experiment [8] has as its target T1, Acetylcholinesterase (Rattus norvegicus). Description: Mixed-type competitive inhibition of rat cortical AChE by Lineweaver-Burke plot analysis.
The target of experiment [9] is T2, Acetylcholinesterase (Mus musculus, UniProt P21836).
T2 sequence (P21836 whole entry): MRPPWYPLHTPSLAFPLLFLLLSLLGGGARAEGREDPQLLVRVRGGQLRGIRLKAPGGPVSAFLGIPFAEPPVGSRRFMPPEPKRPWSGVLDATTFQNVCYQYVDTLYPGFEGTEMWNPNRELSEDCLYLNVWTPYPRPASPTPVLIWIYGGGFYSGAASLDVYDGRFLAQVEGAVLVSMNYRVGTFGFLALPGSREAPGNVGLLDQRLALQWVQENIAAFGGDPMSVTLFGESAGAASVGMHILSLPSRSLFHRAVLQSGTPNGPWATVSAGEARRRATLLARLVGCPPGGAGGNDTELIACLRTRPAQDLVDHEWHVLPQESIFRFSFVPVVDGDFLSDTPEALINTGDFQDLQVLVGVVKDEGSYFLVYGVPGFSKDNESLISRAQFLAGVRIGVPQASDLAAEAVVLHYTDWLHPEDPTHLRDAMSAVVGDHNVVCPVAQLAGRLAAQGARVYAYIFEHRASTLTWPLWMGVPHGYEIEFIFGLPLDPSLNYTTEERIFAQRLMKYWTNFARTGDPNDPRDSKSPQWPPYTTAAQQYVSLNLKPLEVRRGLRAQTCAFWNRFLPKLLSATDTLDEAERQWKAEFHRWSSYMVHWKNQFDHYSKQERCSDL
Put plainly: Inhibition of mouse skeletal AChE.

Calls of active or inactive are those of the source. The calls are words filed in the database; no cut-off is given here.

Acetylcholinesterase (Homo sapiens, UniProt P22303), sequence (P22303 whole entry): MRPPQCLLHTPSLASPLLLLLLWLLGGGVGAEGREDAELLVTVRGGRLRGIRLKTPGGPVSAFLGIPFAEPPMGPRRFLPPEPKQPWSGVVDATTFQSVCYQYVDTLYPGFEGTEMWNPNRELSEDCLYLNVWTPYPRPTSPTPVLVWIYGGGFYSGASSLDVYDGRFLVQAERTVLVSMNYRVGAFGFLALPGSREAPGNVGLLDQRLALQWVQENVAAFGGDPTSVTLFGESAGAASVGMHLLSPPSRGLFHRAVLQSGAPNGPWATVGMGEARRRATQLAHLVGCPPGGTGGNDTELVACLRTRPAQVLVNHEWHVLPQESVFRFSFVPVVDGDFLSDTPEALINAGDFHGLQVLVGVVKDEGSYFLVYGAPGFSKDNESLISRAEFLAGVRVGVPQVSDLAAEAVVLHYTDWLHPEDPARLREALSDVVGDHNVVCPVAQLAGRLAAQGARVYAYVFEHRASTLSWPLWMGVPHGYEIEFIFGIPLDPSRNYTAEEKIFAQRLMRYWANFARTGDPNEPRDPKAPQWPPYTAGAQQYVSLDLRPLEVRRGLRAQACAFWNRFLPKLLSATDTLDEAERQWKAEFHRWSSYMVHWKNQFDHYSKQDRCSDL

For the compound `CC(=O)N[C@@H](CS)C(=O)O`, the results for the Activity in [1] and in experiment [2] were 55.8% and 12.3%, respectively.

For the compound `C=C[C@@H]1[C@@H]2Cc3[nH]c(=O)ccc3[C@@]1(N)C[C@H](C)C2`, the values for the Activity in experiment [3], in experiment [4] and in experiment [5] were 55.5%, 49.1% and 12%, respectively.

What is called IC50 is the concentration that inhibits the measured activity by half. `CC1=C[C@H]2Cc3[nH]c(=O)ccc3[C@@]3(C1)[C@@H]2[C@H](C)CN3C`: at Acetylcholinesterase [6], the IC50 came to 12.1 µM. Also, the inhibition entry in experiment [7] was “Active”.

On to `C=C[C@@H]1[C@H]2C=C(C)C[C@]1(NC)c1ccc(=O)[nH]c1C2`, for which the IC50 is 15 µM at Acetylcholinesterase [6] and 2000 nM against Acetylcholinesterase [9]. The inhibition entry in experiment [8] and in experiment [7] was “Active” each time.

As to `C=C[C@@H]1[C@H]2C=C(C)C[C@]1(N)c1ccc(=O)[nH]c1C2`, the inhibition entry in experiment [8] and in experiment [7] was “Active” throughout.

For `CC1=C[C@H]2Cc3[nH]c(=O)ccc3[C@@]3(C1)[C@@H]2[C@H](Cl)CCN3C`, on Acetylcholinesterase [6], the IC50 turned out to be 20.9 µM. For the same compound, the inhibition entry in experiment [8] and in [7] was “Active” each time.
